The text below walks through data of ChEMBL document CHEMBL1135871, “Sordarin oxazepine derivatives as potent antifungal agents” (2002).

In brackets after ≈: the same amount, converted by molar mass.

Common to all, as to format: functional
The test system of assay [1] is Nakaseomyces glabratus. Nature of the assay: Minimum inhibitory concentration required to inhibit 90-100%growth of Candida glabrata.
For assay [2], the system named is Candida albicans. The experiment in a line: Minimum inhibitory concentration required to inhibit 90-100%growth of Candida albicans.
For assay [3], the system named is Cryptococcus neoformans. The experiment in a line: Minimum inhibitory concentration required to inhibit 90-100% growth of Cryptococcus neoformans.

For the compound `CC(C)C1=CC2CC3(C=O)[C@@H]4CC[C@@H](C)[C@H]4CC2(CO[C@@H]2O[C@H](C)CN(CCC4=CCCCC4)C[C@@H]2O)[C@]13C(=O)O`, the MIC is greater than 128 µg/mL in assay [1], 2 µg/mL (≈ 3.51 µM) in assay [2] and greater than 128 µg/mL in assay [3].
In the case of `CC(C)C1=CC2CC3(C=O)[C@@H]4CC[C@@H](C)[C@H]4CC2(CO[C@@H]2O[C@H](C)CN(CC4CC4)C[C@@H]2O)[C@]13C(=O)O`, the MIC is greater than 128 µg/mL in assay [1], greater than 16 µg/mL in assay [2] and greater than 128 µg/mL in assay [3].
In the case of `Cc1coc(CN2C[C@@H](C)O[C@@H](OCC34C[C@@H]5[C@H](C)CC[C@H]5C5(C=O)CC3C=C(C(C)C)[C@@]45C(=O)O)[C@@H](O)C2)c1`, the figures for the MIC in assay [1], in assay [2] and in assay [3] were greater than 128 µg/mL, 2 µg/mL (≈ 3.6 µM) and 32 µg/mL (≈ 57.6 µM), respectively.
Consider `CC(C)C1=CC2CC3(C=O)[C@@H]4CC[C@@H](C)[C@H]4CC2(CO[C@@H]2O[C@H](C)CN(CCC(F)(F)F)C[C@@H]2O)[C@]13C(=O)O`, for which the MIC is 32 µg/mL (≈ 57.4 µM) in assay [1], 1 µg/mL (≈ 1.79 µM) in assay [2] and greater than 128 µg/mL in assay [3].
As to `C=C(Cl)CN1C[C@@H](C)O[C@@H](OCC23C[C@@H]4[C@H](C)CC[C@H]4C4(C=O)CC2C=C(C(C)C)[C@@]34C(=O)O)[C@@H](OC(C)=O)C1`, the MIC is 16 µg/mL (≈ 27.7 µM) in assay [1], 8 µg/mL (≈ 13.8 µM) in assay [2] and greater than 128 µg/mL in assay [3].
`CC(C)C1=CC2CC3(C=O)[C@@H]4CC[C@@H](C)[C@H]4CC2(CO[C@@H]2O[C@H](C)CN(Cc4cccs4)C[C@@H]2O)[C@]13C(=O)O`: the figures for the MIC in assay [1], in assay [2] and in assay [3] were 128 µg/mL (≈ 229 µM), 2 µg/mL (≈ 3.59 µM) and 32 µg/mL (≈ 57.4 µM), respectively.
The corresponding values for `C=C(Cl)CN1C[C@H](OCC23C[C@@H]4[C@H](C)CC[C@H]4C4(C=O)CC2C=C(C(C)C)[C@@]34C(=O)O)O[C@H](C)C1` are 0.125 µg/mL (≈ 0.247 µM), less than 0.06 µg/mL and 16 µg/mL (≈ 31.6 µM).
As for `C=C(Cl)CN1C[C@@H](C)O[C@@H](OCC23C[C@@H]4[C@H](C)CC[C@H]4C4(C=O)CC2C=C(C(C)C)[C@@]34C(=O)O)[C@H](F)C1`, the MIC was 2 µg/mL (≈ 3.72 µM) in assay [1], less than 0.06 µg/mL in assay [2] and 16 µg/mL (≈ 29.7 µM) in assay [3].
With `C=C(Cl)CN1CC[C@H](OCC23C[C@@H]4[C@H](C)CC[C@H]4C4(C=O)CC2C=C(C(C)C)[C@@]34C(=O)O)O[C@H](C)C1`, the MIC in assay [1] worked out at 2 µg/mL (≈ 3.85 µM); in assay [2], 0.125 µg/mL (≈ 0.24 µM); in assay [3], 1 µg/mL (≈ 1.92 µM).
Taken in the same sequence, the figures for `C=C(C)CN1C[C@@H](C)O[C@@H](OCC23C[C@@H]4[C@H](C)CC[C@H]4C4(C=O)CC2C=C(C(C)C)[C@@]34C(=O)O)[C@@H](O)C1` were 64 µg/mL (≈ 124 µM), 0.125 µg/mL (≈ 0.242 µM) and greater than 64 µg/mL.
Consider `CC(C)C1=CC2CC3(C=O)[C@@H]4CC[C@@H](C)[C@H]4CC2(CO[C@@H]2O[C@H](C)CN(Cc4ccccc4Cl)C[C@@H]2O)[C@]13C(=O)O`, for which the MIC was greater than 128 µg/mL in assay [1], 2 µg/mL (≈ 3.41 µM) in assay [2] and 128 µg/mL (≈ 218 µM) in assay [3].
The corresponding values for `COc1ccc(N2C[C@@H](C)O[C@@H](OCC34C[C@@H]5[C@H](C)CC[C@H]5C5(C=O)CC3C=C(C(C)C)[C@@]45C(=O)O)[C@@H](O)C2)cc1` are 64 µg/mL (≈ 113 µM), 2 µg/mL (≈ 3.52 µM) and greater than 128 µg/mL.
As for `COc1ccc(CN2C[C@@H](C)O[C@@H](OCC34C[C@@H]5[C@H](C)CC[C@H]5C5(C=O)CC3C=C(C(C)C)[C@@]45C(=O)O)[C@@H](O)C2)cc1`, the MIC was 1 µg/mL (≈ 1.72 µM) in assay [1], less than 0.06 µg/mL in assay [2] and greater than 128 µg/mL in assay [3].
The corresponding values for `CO[C@H]1[C@@H](O)[C@H](O)[C@H](OC[C@@]23C[C@@H]4[C@H](C)CC[C@H]4[C@@]4(C=O)CC2C=C(C(C)C)[C@@]34C(=O)O)O[C@@H]1C` [SORDARIN] are greater than 128 µg/mL, 16 µg/mL (≈ 32.5 µM) and 8 µg/mL (≈ 16.2 µM).
Taken in the same sequence, the figures for `C=CCN1C[C@@H](C)O[C@@H](OCC23C[C@@H]4[C@H](C)CC[C@H]4C4(C=O)CC2C=C(C(C)C)[C@@]34C(=O)O)[C@@H](O)C1` were 128 µg/mL (≈ 255 µM), 8 µg/mL (≈ 15.9 µM) and greater than 128 µg/mL.
In the case of `C=C(Cl)CN1C[C@@H](C)O[C@@H](OCC23C[C@@H]4[C@H](C)CC[C@H]4C4(C=O)CC2C=C(C(C)C)[C@@]34C(=O)O)[C@@H](OC)C1`, the MIC was 64 µg/mL (≈ 116 µM) in assay [1], 4 µg/mL (≈ 7.27 µM) in assay [2] and greater than 128 µg/mL in assay [3].
Taken in the same sequence, the figures for `CC(C)C1=CC2CC3(C=O)[C@@H]4CC[C@@H](C)[C@H]4CC2(CO[C@@H]2O[C@H](C)[C@@H](O)[C@@H](O)[C@@H]2O)[C@]13C(=O)O` were greater than 128 µg/mL, greater than 128 µg/mL and greater than 128 µg/mL.
Regarding `C=C(Cl)CN1C[C@@H](C)O[C@@H](OCC23C[C@@H]4[C@H](C)CC[C@H]4C4(C=O)CC2C=C(C(C)C)[C@@]34C(=O)O)[C@@H](O)C1`, the figures for the MIC in assay [1], in assay [2] and in assay [3] were 32 µg/mL (≈ 59.7 µM), 0.5 µg/mL (≈ 0.933 µM) and 4 µg/mL (≈ 7.46 µM), respectively.
Regarding `CC(C)C1=CC2CC3(C=O)[C@@H]4CC[C@@H](C)[C@H]4CC2(CO[C@@H]2O[C@H](C)CN(CCc4ncc[nH]4)C[C@@H]2O)[C@]13C(=O)O`, the MIC in assay [1], in assay [2] and in assay [3] was greater than 128 µg/mL throughout.
With `COCCN1C[C@@H](C)O[C@@H](OCC23C[C@@H]4[C@H](C)CC[C@H]4C4(C=O)CC2C=C(C(C)C)[C@@]34C(=O)O)[C@@H](O)C1`, the MIC in assay [1] was greater than 128 µg/mL; in assay [2], 16 µg/mL (≈ 30.8 µM); in assay [3], greater than 128 µg/mL.
